ChEMBL document CHEMBL1127798, “Structure-activity relationships and pH dependence of binding of 8-alkyl-N5-deazapterins to dihydrofolate reductase” (J Med Chem, 1994)

Columns and labels:
Dihydrofolate reductase [1] = target: T1, Dihydrofolate reductase (Homo sapiens, UniProt P00374); assay: Apparent dissociation constant at pH 6.6 for human dihydrofolate reductase in the absence of cofactor NADPH
T1 sequence (P00374 whole entry): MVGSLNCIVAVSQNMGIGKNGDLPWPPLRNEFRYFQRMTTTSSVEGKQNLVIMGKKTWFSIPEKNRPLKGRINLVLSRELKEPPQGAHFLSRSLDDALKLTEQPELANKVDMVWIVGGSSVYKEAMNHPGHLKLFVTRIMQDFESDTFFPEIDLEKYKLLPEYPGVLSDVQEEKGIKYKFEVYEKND

Dihydrofolate reductase [2] = target: T1, Dihydrofolate reductase; assay: Apparent dissociation constant at pH 6.6 for human dihydrofolate reductase in the presence of cofactor NADPH
Dihydrofolate reductase [3] = target: T1, Dihydrofolate reductase; assay: Tested for the apparent dissociation constant for binding of compound to ternary NADPH complex with human dihydrofolate reductase using equation 11
Dihydrofolate reductase [4] = target: T1, Dihydrofolate reductase; assay: Tested for the apparent dissociation constant for binding of compound to ternary NADPH complex with human dihydrofolate reductase using equation 4
Dihydrofolate reductase [5] = target: T1, Dihydrofolate reductase; assay: Tested for the apparent dissociation constant for binding of compound to binary NADPH complex with human dihydrofolate reductase using equation 4
Dihydrofolate reductase [6] = target: T1, Dihydrofolate reductase; assay: Tested for the apparent dissociation constant for binding of compound to binary NADPH complex with human dihydrofolate reductase using equations 11 and 12
Dihydrofolate reductase [7] = target: T1, Dihydrofolate reductase; assay: Tested for the apparent dissociation constant for binding of compound to binary NADPH complex with human dihydrofolate reductase using equation 16
Dihydrofolate reductase [8] = target: T1, Dihydrofolate reductase; assay: Tested for the apparent dissociation constant for binding of compound to ternary NADPH complex with human dihydrofolate reductase using equations 15 and 16
Dihydrofolate reductase [9] = target: T1, Dihydrofolate reductase; assay: Tested for the apparent dissociation constant for binding of compound to binary NADPH complex with human dihydrofolate reductase using equation 11

Compound | Kd (Dihydrofolate reductase [1]) [nM] | Kd (Dihydrofolate reductase [2]) [nM] | Kd (Dihydrofolate reductase [3]) [nM] | Kd (Dihydrofolate reductase [4]) [nM] | Kd (Dihydrofolate reductase [5]) [nM] | Kd (Dihydrofolate reductase [6]) [nM] | Kd (Dihydrofolate reductase [7]) [nM] | Kd (Dihydrofolate reductase [8]) [nM] | Kd (Dihydrofolate reductase [9]) [nM]
CC1=CC=C2C(=O)NC(N)N=C2N1C (stereo unspecified) | 21000 | 2900 |  |  |  |  |  |  | 
NC1N=C2C(=CC=CN2Cc2ccccc2)C(=O)N1 (stereo unspecified) | 1700 | 700 |  |  |  |  |  |  | 
CC1=C2C(=O)NC(N)N=C2N(C)C=C1 (stereo unspecified) | 21000 | 5100 |  |  |  |  |  |  | 
CCCN1C=C(C)C=C2C(=O)NC(N)N=C21 (stereo unspecified) | 108000 | 4600 |  |  |  |  |  |  | 
CCN1C=CC=C2C(=O)NC(N)N=C21 (stereo unspecified) | 60000 | 13000 |  |  |  |  |  |  | 
CCN1C=C(C)C=C2C(=O)NC(N)N=C21 (stereo unspecified) | 130000 | 16000 |  |  |  |  |  |  | 
CC(C)CN1C=CC=C2C(=O)NC(N)N=C21 (stereo unspecified) | 2200 | 600 |  |  |  |  |  |  | 
CN1C=CC=C2C(=O)NC(N)N=C21 (stereo unspecified) | 118000 | 21000 |  |  |  |  |  |  | 
CC(C)N1C=CC=C2C(=O)NC(N)N=C21 (stereo unspecified) | 34000 | 1900 |  |  |  |  |  |  | 
CCCN1C=CC=C2C(=O)NC(N)N=C21 (stereo unspecified) | 12000 | 4000 | 830 | 2.6 | 20.7 | 5800 | 2100 | 1700 | 6500
CC1=CN(C(C)C)C2=NC(N)NC(=O)C2=C1 (stereo unspecified) | 60000 | 18000 |  |  |  |  |  |  | 
CC1=CN(C)C2=NC(N)NC(=O)C2=C1 (stereo unspecified) | 31000 | 500 |  |  |  |  |  |  | 
CC1=C2C(=O)NC(N)N=C2N(CC(C)C)C=C1 (stereo unspecified) | 2400 | 80 | 30 | 0.1 | 0.2 | 2600 | 2200 | 57 | 3000
CC1=C2C(=O)NC(N)N=C2N(CCC(C)C)C=C1 (stereo unspecified) | 1800 | 700 |  |  |  |  |  |  | 
CCCN1C(C)=CC=C2C(=O)NC(N)N=C21 (stereo unspecified) | 3400 | 2000 | 450 | 0.6 | 0.5 | 1200 | 2800 | 1000 | 2700
